The assay relates to NCI-H841 complex tumor spheroid viability. The assay can be described thus: Anticancer human tumor NCI-H841 cell line growth inhibition.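 As to IC50: spheroids exposed to compounds for 7 days before readout.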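 As to viability, T/C: spheroids exposed to compounds for 7 days before readout; 100% = DMSO vehicle control wells.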 The conditions noted are these: for viability, T/C: stronger effect = lower value. An excerpt: Multicellular complex tumor spheroid response to DNA repair inhibitors in combination with DNA-damaging drugs
This study explores the anticancer activities of DNA-damaging drugs and inhibitors of DNA damage repair, both as single agents and in combinations. Complex tumor spheroids comprised of malignant cells, endothelial cells and mesenchymal stem cells served as an in vitro model for human solid tumors. This model system incorporates physiologically relevant features and patient-derived or established malignant cell lines with clinically relevant genetic alterations from many tumor types. Twenty-six patient-derived or established malignant cell lines were evaluated representing sarcoma, melanoma, small cell lung cancer (SCLC), non-small cell lung cancer (NSCLC), as well as bladder, ovarian and pancreatic cancers. The concentration ranges selected for each drug and investigational agent were based upon clinically achievable concentrations if the clinical Cmax of the agent was known.
Compounds. The drugs and compounds olaparib (NSC753686), talazoparib (NSC767125), berzosertib (NSC777718), elimusertib (NSC800525), nedisertib (NSC802822), VX-984 (NSC792969), AZD-1390 (NSC803789), temozolomide (NSC362856), topotecan (NSC609699), trabectedin (NSC813783), staurosporine (NSC755774), and gemcitabine (NSC613327) were obtained from the National Cancer Institute (NCI) Developmental Therapeutics Program Chemical Repository. The FDA-approved anticancer drug set is available from the Developmental Therapeutics Program at https://dtp.cancer.gov/organization/dscb/obtaining/available_plates.htm. […] The stock solutions were prepared in dimethyl sulfoxide (DMSO, Sigma-Aldrich, St. Louis, MO, cat. D2650) at 400-fold the tested concentration and stored at -70 degrees C. Prior to their use, the stock solutions were diluted in fresh medium and the final DMSO concentration in the assay was 0.25% (v/v). All drugs and investigational agents were tested over a range starting from a high concentration at or near the clinical Cmax and decreasing in half-log increments. If the clinical Cmax for an agent had not been determined, the highest concentration tested was 10 microM.
Cell Lines. The patient-derived cancer cell (PDC) lines: 156681-154-R-J1-PDC, 283228-195-R-J1-PDC, 287954-098-R-J1-PDC, 292921-168-R-J2-PDC, 349418-098-R-PDC, 425362-245-T-J1-PDC, 556581-035-R-J1-PDC, and BL0293-F563-PDC were received from the NCI Patient-Derived Models Repository (PDMR, https://pdmr.cancer.gov). The established cell lines HS-SY-2 (RRID:CVCL_8719), MPNST, and SYO-1 (RRID:CVCL_7146) were obtained from the Sloan Kettering Institute. The alveolar soft parts sarcoma cell line ASPS-1 (RRID:CVCL_S738) was established at the NCI and grown from internal seed stocks. The following established cell lines were purchased from the American Type Culture Collection (ATCC, Manassas, VA): G-401 (ATCC, cat. CRL-1441, RRID:CVCL_0270), SW982 (ATCC, cat. HTB-93, RRID:CVCL_1734), VA-ES-BJ (ATCC, cat. CRL-2138, RRID:CVCL_1785), NCI-H719 (ATCC, cat. CRL-5837, RRID:CVCL_1582), NCI-H196 (ATCC, cat. CRL-5823, RRID:CVCL_1509), NCI-H841 (ATCC, cat. CRL-5845, RRID:CVCL_1595), NCI-H1618 (ATCC, cat. CRL-5879, RRID:CVCL_1480), NCI-H1876 (ATCC, cat. CRL-5902, RRID:CVCL_1503), DMS 114 (ATCC, cat. CRL-2066; RRID:CVCL_1174), NCI-H211 (ATCC, cat. CRL-5824; RRID:CVCL_1529), and SW 1271 (ATCC, cat. CRL-2177, RRID:CVCL_1716). The small cell lung cancer cell line COR-L88 was purchased from Sigma-Aldrich (cat. 92031917-1VL, RRID:CVCL_1141). The non-small cell lung cancer cell lines NCI-H226 (RRID:CVCL_1544) and NCI-H322M (RRID:CVCL_1557) were established at the NCI and grown from internal seed stocks. Pooled donor human umbilical vein endothelial cells (HUVEC, Lonza, cat. CC-2519) and human mesenchymal stem cells (hMSC, Lonza, cat. PT-2501) were purchased from Lonza (Walkersville, MD).
Cell Culture. All cells were maintained in an incubator at 37 degrees C and 5% CO2 with 95% humidity. […]

The mark [1] stands for this setting: compound alone, run of 11/07/2019.
Setting [2] is: compound alone, run of 12/16/2019.

“And” between values parts separate entries of the source, which are not always exact repeats. Equal entries are not always repeated. The source made the active and inactive calls. The calls were made as follows: active = viability on the fitted dose curve at most 10% of control; inactive = the rest.

As to `CC(C)n1c(=O)n(C)c2cnc3cc(F)c(-c4ccc(OCCCN5CCCCC5)nc4)cc3c21`, the viability, T/C by setting is: (compound 0.0316 µM) 96.6% and 93.7% and 101%; (compound 0.1 µM) 94.6% and 91.3% and 99.4%; (compound 0.316 µM) 93.6% and 95.8% and 99.8%; (compound 1 µM) 94.1% and 91.1% and 99.3%; (compound 3.16 µM) 91.6% and 80.8% and 97%; (compound 10 µM) 88.3% and 76.8% and 90.8%. Besides, the IC50 (curve of compound) was greater than 10000 nM.
Regarding `CC1COCCN1c1cc(-c2ccnn2C)c2ccnc(-c3ccn[nH]3)c2n1` (stereo not given), the viability, T/C is 77.2% and 68.7% and 83.9% (compound 0.0316 µM); 16.2% and 27.3% and 39.8% (compound 0.1 µM); 4.34% and 9.62% and 7.72% (compound 0.316 µM); 1.61% and 3.17% and 2.67% (compound 1 µM); 1.48% and 2.14% and 1.89% (compound 3.16 µM); 1.73% and 2.18% and 2.49% (compound 10 µM). The IC50 (curve of compound) was 52.8 nM and 53.1 nM and 76.6 nM.
For `CC[C@@]1(O)C(=O)OCc2c1cc1n(c2=O)Cc2cc3c(CN(C)C)c(O)ccc3nc2-1`, the viability, T/C is, setting by setting: (compound 0.003 µM) 98.1% [middle of 10 runs]; (compound 0.03 µM) 2.24% [middle of 10 runs]; (compound 0.0949 µM) 1.86% [middle of 10 runs]; (compound 0.3 µM) 1.86% [middle of 10 runs]. Besides, the IC50 under setting [1] was 12 nM [middle of 5 runs] and the IC50 under setting [2] was 15.8 nM [middle of 4 runs].
For `CNCc1ccc(-c2cc(-c3nc(-c4ccc(S(=O)(=O)C(C)C)cc4)cnc3N)on2)cc1`, the viability, T/C was 100% (2×) and 97.3% (compound 0.00949 µM); 94.6% and 98.1% and 99.8% (compound 0.03 µM); 28.9% and 81.8% and 95.3% (compound 0.0949 µM); 25.2% and 24% and 63.7% (compound 0.3 µM); 6.79% and 3.39% and 9.67% (compound 0.949 µM); 3.17% and 1.05% and 2.03% (compound 3 µM). The IC50 (curve of compound) was 66 nM and 179 nM and 400 nM.
`COc1cc(C)[nH]c(=O)c1CN1CCc2c(Cl)cc(C(OC)C3COC3)c(Cl)c2C1=O` (stereo not given): the viability, T/C reads like this: (compound 0.0316 µM) 91% and 78.5% and 86.2%; (compound 0.1 µM) 73.6% and 74.6%; (compound 0.316 µM) 73.2% and 67.7%; (compound 1 µM) 65% and 42.6% and 61.8%; (compound 3.16 µM) 60.1% and 38.4% and 55.5%; (compound 10 µM) 54.7% and 35.1% and 51.2%. The outcome was “inactive” (compound 0.1 µM) and “inactive” (compound 0.316 µM).
Regarding `COc1cc2c(cc1O)CCNC21CSC2c3c(OC(C)=O)c(C)c4c(c3C(COC1=O)N1C(O)C3Cc5cc(C)c(OC)c(O)c5C(C21)N3C)OCO4` (stereo not given), the viability, T/C is 102% [middle of 10 runs] (compound 30 pM), 99.5% [middle of 10 runs] (compound 94.9 pM), 3.1% [middle of 10 runs] (compound 0.000949 µM) and 0.11% [middle of 4 runs] (compound 0.003 µM). Also, the IC50 under setting [2] is 0.258 nM [middle of 10 runs].
As to `COc1ccc([C@@H](O)c2cc(-c3ncnc4cc(N5CCOCC5)ccc34)c(F)cc2Cl)nn1`, the viability, T/C by setting is: (compound 0.0316 µM) 97.7% and 102% and 99.6%; (compound 0.1 µM) 101% and 104% and 99.6%; (compound 0.316 µM) 95.7% and 99% and 96.2%; (compound 1 µM) 93.4% and 89.9%; (compound 3.16 µM) 67% and 34.4% and 73.9%; (compound 10 µM) 13.7% and 8.86% and 17%. The outcome (compound 1 µM) was inactive. Further, under “curve of compound”, the IC50 is 4570 nM and 2150 nM and 5090 nM.
For the molecule `Cc1cc(C)c(CNC(=O)c2cc(-c3ccc(CN4CCOCC4)cc3)cc3c2cnn3C2CCCC2)c(=O)[nH]1`, the viability, T/C is 101% and 99.7% and 102% (compound 0.0316 µM); 103% and 98.5% and 102% (compound 0.1 µM); 99.7% and 106% and 98.5% (compound 0.316 µM); 99.8% and 93.7% and 97.1% (compound 1 µM); 87.3% and 84.7% and 80.8% (compound 3.16 µM); 65.2% and 43.9% and 50.7% (compound 10 µM). Further, the IC50 (curve of compound) is > 10000 nM and 8450 nM.
For the molecule `Cc1sc2c(c1C)C(c1ccc(Cl)cc1)=NC(CC(=O)Nc1ccc(O)cc1)c1nnc(C)n1-2` (stereo not given), the viability, T/C runs as follows: (compound 0.00949 µM) 104% and 97.9% and 102%; (compound 0.03 µM) 110% and 95.7% and 101%; (compound 0.0949 µM) 87.8% and 91.9% and 91.2%; (compound 0.3 µM) 65.4% and 75.9% and 82.7%; (compound 0.949 µM) 25.2% and 33.3% and 44%; (compound 3 µM) 8.1% and 7.29% and 14.4%. Moreover, the IC50 (curve of compound) was 452 nM and 604 nM and 807 nM.
As to `Cn1ncnc1[C@H]1c2n[nH]c(=O)c3cc(F)cc(c23)N[C@@H]1c1ccc(F)cc1`, the viability, T/C runs as follows: (compound 0.00949 µM) 90.1% and 29.7% and 97.4%; (compound 0.03 µM) 85.4% and 30.6% and 90.1%; (compound 0.0949 µM) 80.3% and 9.88% and 89.6%; (compound 0.3 µM) 55.7% and 62.9% and 83.3%; (compound 3 µM) 7.92% and 2.5% and 1.44%.
With `Cn1nnc2c(C(N)=O)ncn2c1=O`, the viability, T/C (compound 1 µM) was 101% [middle of 9 runs]; the viability, T/C (compound 3.16 µM) is 101% [middle of 10 runs]; the viability, T/C (compound 10 µM) was 101% [middle of 10 runs]. Moreover, the IC50 under setting [1] was > 100000 nM and 17400 nM.
For the molecule `O=C(c1cc(Cc2n[nH]c(=O)c3ccccc23)ccc1F)N1CCN(C(=O)C2CC2)CC1`, the viability, T/C is 101% and 95.3% and 103% (compound 0.0949 µM); 93.6% and 103% (compound 0.3 µM); 94.8% and 89.4% and 99.4% (compound 0.949 µM); 43.4% and 81.5% and 88.2% (compound 3 µM); 8.7% and 7.95% and 1.92% (compound 30 µM). Also, the outcome (compound 0.3 µM) was inactive. Moreover, where the note is “curve of compound”, the IC50 was 2580 nM and 6160 nM and 5100 nM.
Regarding `[2H]c1nc(C)nc([2H])c1-c1cc(NC[C@@H](C)c2cccc3c(C(=O)NC)ccnc23)ncn1`, the viability, T/C (compound 0.0316 µM) was 100% and 97.5% and 102%; the viability, T/C (compound 0.1 µM) is 99.4% and 97.2% and 100%; the viability, T/C (compound 0.316 µM) was 98.4% and 102% and 98.1%; the viability, T/C (compound 1 µM) is 98.7% and 99.9% and 96.8%; the viability, T/C (compound 3.16 µM) was 98.2% and 103% and 95.4%; the viability, T/C (compound 10 µM) was 92.6% and 102% and 96.8%. The IC50 (curve of compound) was greater than 10000 nM.
